Values joined by “and” are separate entries in the source; they are usually repeats but may differ in a detail not shown here. Identical values can stand only once.
How the values were obtained:
[1] = tested on: Str112 receptor (TGTR); assay: cell-free BRET^2 assay with dual-tagged Str112 (TGTR); format: biochemical, C. elegans; conditions: 1 μM ligand, 10 nM TGTR; for BRET^2 signal compared to the response of TGTR to water, significance: P≦0.05
From the text: The TGTR sequence flanked by NcoI and NotI restriction sites was synthesised by Genscript. The TGTR sequence was inserted into the NcoI and NotI sites of the pENTR11 vector. These were then recombined into pYES-DEST52 (Invitrogen) using Gateway® technology for subsequent expression in S. cerevisiae.
The same expression protocol was used for the expression of TGTR in InVSC1 as for OGOR expression. The TGTR coding sequence is provided as SEQ ID NO:51, whereas the amino acid sequence is provided as SEQ ID NO:52.
The same RET analysis protocol as described for the OGOR selectivity studies. 1 μM of the ligands pyruvic acid, citric acid, ethyl acetate, acetoin and diacteyl was assayed with 10 nM of TGTR
The bacterial strain OP50 was grown in LB overnight at 37° C. with shaking (200 rpm). E. coli strain OP50 is usually used as a food source for nematode growth in the laboratory (Brenner, 1974). Two assays were performed using the OP50 bacterial culture. The first assay was the addition of 10 μL of the bacterial culture or 10 μL of LB to 10 nM TGTR. The second assay required that 1 mL of the bacterial culture was placed in a microcentrifuge tube and centrifuged at 10000×g for 1 minute. 10 μL of the supernatant, following decanting into a fresh microcentrifuge tube, or 10 μL of LB was added to 10 nM TGTR. Following bacterial sample addition the same protocol was followed as for the OGOR RET analysis.

[2] = target: T1, PTHR (Homo sapiens, UniProt Q03431); conditions: 1 μM; cited from earlier work
T1 sequence (Q03431 27-593): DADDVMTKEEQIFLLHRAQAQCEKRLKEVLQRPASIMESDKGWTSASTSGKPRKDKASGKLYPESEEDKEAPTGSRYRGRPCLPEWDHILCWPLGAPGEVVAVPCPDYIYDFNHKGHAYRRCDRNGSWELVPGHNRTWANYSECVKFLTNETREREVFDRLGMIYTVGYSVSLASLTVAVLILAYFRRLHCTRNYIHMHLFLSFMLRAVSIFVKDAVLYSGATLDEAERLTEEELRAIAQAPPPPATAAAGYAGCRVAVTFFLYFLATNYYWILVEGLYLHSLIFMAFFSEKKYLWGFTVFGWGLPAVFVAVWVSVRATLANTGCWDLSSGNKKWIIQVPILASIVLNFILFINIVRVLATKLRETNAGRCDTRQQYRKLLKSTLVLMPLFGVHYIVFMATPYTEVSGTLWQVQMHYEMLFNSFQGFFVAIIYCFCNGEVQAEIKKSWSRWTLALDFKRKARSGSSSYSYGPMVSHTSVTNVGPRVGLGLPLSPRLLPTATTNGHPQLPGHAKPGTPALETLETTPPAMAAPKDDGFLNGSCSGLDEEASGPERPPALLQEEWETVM

[3] = target: T2, α2A receptor (Mus musculus, UniProt Q01338); conditions: 10 nM; cited from earlier work
T2 sequence (Q01338 1-465): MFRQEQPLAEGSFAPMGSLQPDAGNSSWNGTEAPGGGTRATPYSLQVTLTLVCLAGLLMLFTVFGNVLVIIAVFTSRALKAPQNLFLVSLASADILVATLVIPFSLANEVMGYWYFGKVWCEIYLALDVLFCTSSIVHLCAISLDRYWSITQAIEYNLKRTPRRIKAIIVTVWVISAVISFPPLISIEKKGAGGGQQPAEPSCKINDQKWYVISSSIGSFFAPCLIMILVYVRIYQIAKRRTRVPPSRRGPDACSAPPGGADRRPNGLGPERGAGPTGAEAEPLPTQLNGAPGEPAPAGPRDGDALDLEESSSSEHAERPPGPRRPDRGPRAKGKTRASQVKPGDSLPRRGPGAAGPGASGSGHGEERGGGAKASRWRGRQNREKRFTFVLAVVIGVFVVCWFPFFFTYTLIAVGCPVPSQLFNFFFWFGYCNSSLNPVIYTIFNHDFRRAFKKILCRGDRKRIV

[4] = tested on: OGOR mutant (H110Y); assay: cell-free BRET^2 assay with OGOR mutant (H110Y), negative control; format: biochemical, C. elegans; conditions: μM concentrations of diacetyl
Description: Site-directed mutagensis was carried out with OGOR in pDONR201 vector (see above) as the double stranded template. The histidine 110 to tyrosine (H110Y) mutation was performed using the Stratagene Quickchange site directed mutagenesis kit according to standard protocols using the following primers; 5′-[…]-3′ (WT) (SEQ ID NO:43) and 5′-[…] GTG-3′ (H110Y antisense) (SEQ ID NO:44).
PCR was performed with Pfx50™ standard ingredients (Invitrogen) and conditions were as follows 94° C. 2 mins, 16 cycles of 94° C. 30 secs, 55° C. 1 minute, 68° C. 6.8 minutes. Following sequencing the OGOR mutant was then subcloned into pYES-DEST52 (Invitrogen) using Gateway® technology (5′ and 3′ attB sites were included in original OGOR sequence) for subsequent expression in S. cerevisiae.
RET analysis was carried out in 96-well plates (Perkin-Elmer) and involved incubating the specified dual tagged receptor protein (OGOR) for 45 minutes with 1 μM of each particular odorant. The final volume was 100 μL and included 10 μL of odorant, receptor protein sample (see ‘Normalization of sample concentration’ section), D-PBS (or 1×PBS) and 5 μL of Clz400a (5 μM). A background signal was recorded by assaying a sample of D-PBS (or 1×PBS). During the incubation time the 96-well plate wells were sealed with Topseal™—A (Packard) with each sample area individually sealed. […]

[5] = tested on: ODR-10 expressing HEK 293 cells; conditions: cited from earlier work
[6] = whole-cell BRET^2 assay; format: cell-based; conditions: 1 μM, 45 minutes incubation, P≦0.05
Description: FIG. 16. BRET^2 signal upon incubation (45 minutes) with 1 μM of diacetyl (mean±S.D., n=3) monitored using a whole-cell and cell-free assay systems.

[7] = tested on: ODR-10 receptor (OCOY); assay: cell-free FRET assay with dual-labelled ODR-10 (OCOY); format: biochemical, C. elegans; conditions: μM concentrations of diacetyl
Description: All spectral scans were recorded with a plate-reading SpectraMax M2 spectrofluorimeter (Molecular Devices). 100 μL aliquots of membrane preparations sample were scanned using 96-well plates (Perkin-Elmer). Fluorescence spectral scans recorded from 450 to 600 nm with an excitation wavelength of 420 nm using a 455 nm emission cut-off filter.
To compare the sensitivity of the BRET^2 system to the FRET system for monitoring GPCR activation the BRET^2 components used to tag the ODR-10 receptor (OGOR) were replaced with FRET components resulting in the insertion of CFP into the 3rd intracellular loop and YFP at the C-terminus (OCOY). The CFP (mCFP) (SEQ ID NO:45) and YFP (mCitrine) (SEQ ID NO:46) derivatives were both monomeric and codon optimized (EUROSCARF) for yeast expression (SEQ ID NOs 47 and 48 respectively).
The OCOY sequence flanked by KpnI and XhoI restriction sites was synthesised by Genscript. The OCOY sequence was inserted into the KpnI and XhoI sites of the pENTR11 vector. These were then recombined into pYES-DEST52 (Invitrogen) using Gateway® technology for subsequent expression in S. cerevisiae. […]
To assess the relative concentrations of dual-tagged receptor samples the fluorescence intensity of the sample was determined from spectral scans and the sample amount normalized by the OCOY fluorescence intensity. […]

[8] = tested on: ODR-10 receptor (OGOR); assay: cell-free BRET^2 assay with dual-labelled ODR-10 (OGOR) in yeast membrane preparations; format: biochemical, C. elegans
Description: Cells were harvested by centrifugation at 1500×g (4° C.) for 5 minutes, washed in water and resuspended in 4 mL of Dulbecco's phosphate buffered saline (D-PBS) or 1×PBS, containing 1000 mg/L glucose, 36 mg/L sodium pyruvate, calcium and magnesium (Invitrogen). The cells were lysed by French press (˜18000 psi) and the soluble protein fractions were isolated by centrifugation at 9300×g (4° C.) for 15 minutes. Following this the soluble protein fraction was transferred to 13.15 mL polycarbonate thick wall centrifuge tubes and ultracentrifuged at 40,000 rpm (Beckman Coulter L-80 ultra-centrifuge) for 1 hour at 4° C. The supernatant was decanted and the membrane pellet resuspended in 1 mL of D-PBD or 1×PBS, and left overnight at 4° C. to solubilise.
Simultaneous dual emission RET measurements were carried out with a POLARstar OPTIMA microplate reader (BMG LabTech). Simultaneous emission measurements used a BRET^2 filter set (410-80/515-30) with the set respective gains for each channel (3300/4095).
To assess the relative concentrations of BRET^2 tagged receptor samples the fluorescence intensity of the sample was determined from spectral scans and the sample amount normalized by the OGOR fluorescence intensity. To convert GFP^2 intensity into concentration purified GFP^2 protein was assayed at different concentrations to produce a calibration graph relating concentration to fluorescence intensity. […] Rearranging the line of best fit equation (y=271x+233.31) results in conversion of fluorescence intensity to concentration. […]
RET analysis was carried out in 96-well plates (Perkin-Elmer) and involved incubating the specified dual tagged receptor protein (OGOR) for 45 minutes with 1 μM of each particular odorant. […] A background signal was recorded by assaying a sample of D-PBS (or 1×PBS). […]
For BRET measurements Clz400a substrate (5 μM) was added following the 45 minute incubation time and the signal recorded using a 0.50s integration time over a 5 second period. Following addition of Clz400a the well was re-sealed while the signal was recorded to reduce cross-contamination of samples. […]

CC(=O)C(=O)O [pyruvic acid]
BRET^2 signal compared to the response of TGTR to water, significance [1]: significantly higher

PTH: parathyroid hormone, agonist of PTHR, literature value
change in the FRET signal upon binding [2]: ~20%

NC[C@H](O)c1ccc(O)c(O)c1 [norepinephrine]
change in the FRET signal upon binding [3]: ~5%

CC(=O)C(C)=O [diacetyl]
BRET^2 response to diacetyl [4]: 4.1%
response versus solvent (water) response, significance [4]: not significantly different
Ca^2+ elevation response ([5]; ODR-10 expressing HEK 293 cells): the only volatile compound to produce a Ca^2+ elevation response
apparent affinity (EC50) as part per million ([5]; expressed in human cells, calcium imaging): ~0.2 ppm
EC50 ([5]; expressed in human cells, calcium imaging, read-out: apparent affinity (EC50) of ODR-10 for diacetyl): 2300 nM
change in the BRET^2 signal, whole cell assay [6]: no significant change
reduction in FRET ratio (intensity at 520 nm/intensity at 480 nm) [7]: 7.6%
response versus solvent (water) response, significance [7]: significantly different
decrease in the BRET^2 signal, cell-free assay system ([8]; 1 μM, 45 minutes incubation, Example 7, P≦0.05): 52%
change in BRET^2 signal compared to the solvent (water) response ([8]; OGOR, μM concentrations (1 μM) of ligand, 45 minutes incubation, decrease in signal): 37.5% and 32.4%
EC50 expressed as parts per quadrillion ([8]; equivalent of the fM EC50): 0.31 ppq

CC(=O)C(C)O (stereo not shown) [acetoin]
increase in the BRET^2 signal [1]: 20.8%
BRET^2 signal compared to the response of TGTR to water, significance [1]: significantly higher

Reference: patent US8647887B2, “Measuring G protein coupled receptor activation” (Commonwealth Scientific and Industrial Research Organisation, priority 2009, dated 2014)
